Data on 3 compounds can be found in paper PMC7463460, “Structure and Antiparasitic Activity Relationship of Alkylphosphocholine Analogues against Leishmania donovani” (Microorganisms, 2020).

Where “and” joins values, the source holds several entries; their conditions need not be identical. Equal values may be shown once. Where only a bound is given, the exact number is not on record here.

For series [1], the system named is L. donovani 087/11 Milt-Sb-intermediate promastigotes. Description: Promastigote luciferase assay, Milt-resistant 087/11. Format: cell-based, Leishmania donovani. To be noted: for IC50: Leishmania donovani, read-out: Mean IC50 Value Promastigotes; for Cross-Resistance Index (CRI50) Promast / Promast: Amast Ratio: strain 087/11, Milt-Sb-intermediate. From the text:
(§1) L. donovani cloned strains with different Sb susceptibility backgrounds were derived from isolates obtained from VL patients at the B.P. Koirala Institute of Health Sciences, Dharan, Nepal: MHOM/NP/02/BPK282/0cl4 (Sb sensitive, Sb-S). MHOM/NP/02/BPK087/0cl11 (Sb intermediate, Sb-I) and MHOM/NP/02/BPK275/0cl18 (Sb resistance, Sb-R [13]). In addition, Milt-resistant parasites raised against these three Sb sensitivity backgrounds and the Sb-sensitive strain (MHOM/ET/67:LV82) was also used in studies. Luciferase expressing promastigotes for the LV82 and Nepalese strains were prepared using previously published methods and the integrative construct (a gift from Dr D.F. Smith), designated pGL1313, contained pSSU-int fragments to facilitate integration into the ribosomal RNA locus of Leishmania.
(§2) The anti-leishmanial activity of APC against L. donovani luciferase-expressing promastigotes was determined by adding of the appropriate 100 µL parasite line (10^6 cells/mL) to the wells of a 96-well plate and adding 100 µL medium alone (controls) or 100 µL of APC compound (0.01 µg/mL–6.25 µg/mL, n = 3/treatment). […].
(§3) Luciferin solution (1 µg/mL in 20 µL medium without FCS) was added to the appropriate wells of the 96-well plate at the end of the experiment and the amount of light emitted/well was measured using a luminometer (Biotek Synergy HT, relative light units) using a wavelength/bandwidth of 440/40 nm, or IVIS® imaging (Spectrum Living Image system®, total flux, photons/sec).
(§4) The effect of drug treatment on parasite survival was determined by calculating the mean suppression in the light emitted from the drug-treated experimental sample compared to the mean control value and used to calculate the IC50 using Grafit® software (version 5.0, Erithacus Software, East Grinstead, West Sussex, UK). The effect of drug alone on the viability of uninfected macrophages was determined using the same experimental protocol above, but cell viability was determined using an alamar blue colorimetric assay. At the end of the incubation period, cells’ 10 µL resazurin solution (0.02% w/v) was added to control and drug treated cells and the absorbance of samples was read at 575 and 595 nm. The effect of drug treatment on cell survival, which correlates with the magnitude of dye reduction, was expressed as percentage viability (or alamar blue reduction) and determined using the formula provided in the manufacturer’s protocol % alamar blue reduction=(εoxλ)(Aλ1)−(εoxλ1)(Aλ2)/(εredλ1)(A^′λ2)−(εredλ2)(A^′λ1)x100
(§5) Cross resistance (CRI50) indexes were determined as Cross selectivity indices (CRI)=mean IC50 value for the relevant drug−resistant strain i.e., Sb−I or Sb−R / mean IC50 value drug−sensitive strain Sb−S

Series [2] relates to L. donovani 282/4 Milt-Sb-sensitive promastigotes. Description: Promastigote luciferase assay, Milt-resistant 282/4. Format: cell-based, Leishmania donovani. To be noted: for IC50: Leishmania donovani, read-out: Mean IC50 Value Promastigotes; for Promast: Amast Ratio: strain 282/4, Milt-Sb-sensitive.
Excerpt: as §1
The anti-leishmanial activity of APC against L. donovani luciferase-expressing promastigotes was determined by adding of the appropriate 100 µL parasite line (10^6 cells/mL) to the wells of a 96-well plate and adding 100 µL medium alone (controls) or 100 µL of APC compound (0.01 µg/mL–6.25 µg/mL, n = 3/treatment). The plate was incubated for 72 h at 25 °C. In combination assays, the additional compound/compounds, at a final concentration of 0.195 or 0.39 µg/mL, was added to the initial APC being tested.
as §3, §4

Details of series [3]: method as in Anatrace product description sheet. The following applies: critical micellar concentration; ref Anatrace product description sheet; cited from earlier work.
In series [4] the test system is L. donovani 087/11 Milt-Sb-intermediate intracellular amastigotes. Description: Intracellular amastigote assay, Milt-resistant 087/11. Format: cell-based, Leishmania donovani. The following applies: for IC50: Leishmania donovani, read-out: Mean IC50 Value Amastigotes; for Cross-Resistance Index (CRI50) Amast / Selectivity Index (SI50): strain 087/11, Milt-Sb-intermediate; for Selectivity Index (SI50): macrophage CC50 / amastigote IC50.
Excerpt: as §1
(§6) In the macrophage studies, the method described in previous studies was used as follows. Briefly, bone-marrow-derived BALB/c macrophages (1–2 × 10^5) in 100 µL complete RPMI 1640 medium were added to the wells of a 96 well plate and left to adhere for 24 h at 37 °C, 5% CO₂/95% air. The medium was removed and 100 µL of the appropriate L. donovani luciferase-expressing promastigotes line (parasite: host cell ratio 1:10, 1:20 or 1:40) was added to each well, the ratio used reflected the infectivity of the strain and ensured that control data gave a bioluminescent signal within the same range. […] The variability in infectivity complicates strain to strain comparisons, but we decided to focus on achieving good infection levels in controls so that the effect of drug treatment could be determined. It is possible that intracellular macrophage parasites could have been at different developmental stages at 24 h post-infection. […] Therefore, we assumed that the effect of compounds on the amastigote stage rather than the promastigotes stage was determined in in vitro macrophage studies.
(§7) The plate was incubated for a further 24 h, the medium removed, and each well washed with PBS to eliminate non-internalized parasites, which were monitored microscopically. When the wells were devoid of external parasites, 100 µL of the medium alone (control) or appropriate APC compound was then added (0.01–0.197 µg/mL, n = 3/treatment). […]. All plates were incubated for 72 h at 37 °C, 5% CO₂/95% air. Wells with macrophage and with no drug or promastigotes added were used in control experiments.
as §3
as §4, with “reduction=(εoxλ)(Aλ1)−(εoxλ1)(Aλ2)/(εredλ1)(A^′λ2)−(εredλ2)(A^′λ1)x100 […]” for “reduction=(εoxλ)(Aλ1)−(εoxλ1)(Aλ2)/(εredλ1)(A^′λ2)−(εredλ2)(A^′λ1)x100”

For series [5], the system named is L. donovani 275/18 Milt-Sb-resistant promastigotes. Kind of series: Promastigote luciferase assay, Milt-resistant 275/18. To be noted: for IC50: Leishmania donovani, read-out: Mean IC50 Value Promastigotes. Format: cell-based, Leishmania donovani.
Excerpt: as §1, §2, §3, §4, §5

In series [6] the test system is L. donovani 282/4 Milt-Sb-sensitive intracellular amastigotes. Kind of series: Intracellular amastigote assay, Milt-resistant 282/4. To be noted: for IC50: Leishmania donovani, read-out: Mean IC50 Value Amastigotes; for Selectivity Index (SI50): strain 282/4, Milt-Sb-sensitive, macrophage CC50 / amastigote IC50. The class given is cell-based, Leishmania donovani.
Excerpt: as §1, §6
The plate was incubated for a further 24 h, the medium removed, and each well washed with PBS to eliminate non-internalized parasites, which were monitored microscopically. […]
as §3, §4

Series [7] has as its system L. donovani 087/11 (Sb-intermediate) intracellular amastigotes. Kind of series: Intracellular amastigote assay, Sb-intermediate strain 087/11. The following applies: for IC50: Leishmania donovani, read-out: Mean IC50 Amastigotes; for Cross-Resistance Index (CRI50) Amast: strain 087/11, Sb-intermediate vs Sb-S; for Selectivity Index (SI50): strain 087/11, Sb-intermediate, macrophage CC50 / amastigote IC50. Format: cell-based, Leishmania donovani.
Excerpt: as §1, §6, §7, §3
as §4, with “reduction=(εoxλ)(Aλ1)−(εoxλ1)(Aλ2)/(εredλ1)(A^′λ2)−(εredλ2)(A^′λ1)x100 […]” for “reduction=(εoxλ)(Aλ1)−(εoxλ1)(Aλ2)/(εredλ1)(A^′λ2)−(εredλ2)(A^′λ1)x100”

Setting [8] is: strain 275/18, Milt-Sb-resistant.

Broadly, the IC50 is the concentration at which inhibition is half-maximal. Regarding `CCCCCCCCCCCCOP(=O)([O-])OCC[N+](C)(C)C` [APC12, dodecylphosphocholine], the IC50 in series [1] was 184 µg/mL and 520 µM; in series [2] it was > 125 µg/mL and > 356 µM; in series [4] it was 6.17 µg/mL and 17.6 µM; in series [5] it was > 125 µg/mL and > 356 µM; in series [6], 0.08 µg/mL and 230 nM; in series [7], 0.2 µg/mL and 570 nM. Moreover, the “Cross-Resistance Index (CRI50) Promast” value in series [1] is recorded as more than 1.47. In addition, the “Promast: Amast Ratio” value was 29.82 in series [1], more than 1562.5 in series [2] and more than 28.09 in series [5] (setting [8]). Further, in series [3], the CMC is 351.50 µg/mL. In addition, the “Cross-Resistance Index (CRI50) Amast” value in series [4] is reported as 77.13; in series [7] it was 0.77. Further, the “Selectivity Index (SI50)” value is 5.73 in series [4], 442.25 in series [6] and 176.90 in series [7].

For the compound `CCCCCCCCCCCCCCOP(=O)([O-])OCC[N+](C)(C)C` [APC14, tetradecylphosphocholine], the IC50 is 232 µg/mL and 630 µM in series [1]; > 125 µg/mL and > 329 µM in series [2]; 10 µg/mL and 26.4 µM in series [4]; > 125 µg/mL and > 329 µM in series [5]; > 1.73 µg/mL and > 4.56 µM in series [6]; 0.19 µg/mL and 500 nM in series [7]. For the same compound, the “Cross-Resistance Index (CRI50) Promast” value in series [1] is listed as more than 1.86; in series [5] (setting [8]), 1.00. Further, the “Promast: Amast Ratio” value in series [1] is on record as 23.13; in series [2], more than 72.25. In series [3], the CMC was 45.54 µg/mL. The “Cross-Resistance Index (CRI50) Amast” value in series [4] was more than 5.95; in series [7], 1.58. Also, the results for the “Selectivity Index (SI50)” value in series [4], in series [6] and in series [7] were 4.08, more than 23.64 and 215.21, respectively.

With `CCCCCCCCCCCCCCCCOP(=O)([O-])OCC[N+](C)(C)C` [APC16, hexadecylphosphocholine, reference compound], the IC50 in series [1] was 242 µg/mL and 560 µM; in series [2], > 125 µg/mL and > 307 µM; in series [4], 12.7 µg/mL and 31 µM; in series [5], > 125 µg/mL and > 307 µM; in series [6], > 1.61 µg/mL and > 3.95 µM; in series [7] it was 0.29 µg/mL and 710 nM. Besides, the “Promast: Amast Ratio” value in series [1] is reported as 19.13; in series [2] it was more than 77.64; in series [5] (setting [8]) it was 2.04. Also, in series [3], the CMC is listed as 0.41 µg/mL.
